ChEMBL document CHEMBL1201862, “PubChem BioAssay data set” (2004)
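The compound was tested at five concentrations on cells cultured in 96-well plates, with a 48-hour exposure period. At the GI50, growth is halved.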 The source made the active and inactive calls. No stated cut-off is given here; in the data, active = GI50 up to about 1.1 µM and inactive = higher.

Columns and labels:
Assay in all cases: growth of human tumour cells (NCI), 48 h
[1] = test system: 786-0
[2] = test system: A498
[3] = test system: A549
[4] = test system: BT-549
[5] = test system: EKVX
[6] = test system: HCC 2998
[7] = test system: HCT-116
[8] = test system: HCT-15
[9] = test system: HOP-62
[10] = test system: K562
[11] = test system: KM12
[12] = test system: LOX IMVI
[13] = test system: MDA-N
[14] = test system: MOLT-4
[15] = test system: NCI-H460
[16] = test system: PC-3
[17] = test system: SK-OV-3
[18] = test system: SNB-75
[19] = test system: TK-10
[20] = test system: ACHN

| SMILES | GI50 [1] | GI50 [2] | GI50 [3] | GI50 [4] | GI50 [5] | GI50 [6] | GI50 [7] | GI50 [8] | GI50 [9] | GI50 [10] | GI50 [11] | GI50 [12] | GI50 [13] | GI50 [14] | GI50 [15] | GI50 [16] | GI50 [17] | GI50 [18] | GI50 [19] | GI50 [20] |
| --- | --- | --- | --- | --- | --- | --- | --- | --- | --- | --- | --- | --- | --- | --- | --- | --- | --- | --- | --- | --- |
| Clc1cccc(Cl)c1C1SCC2=Nc3ccccc3CN21 (configuration not stated) | 13.2 µM (inactive) | 71.8 µM (inactive) | 20.5 µM (inactive) | 66.4 µM (inactive) | 23.7 µM (inactive) | 29.6 µM (inactive) | 12.1 µM (inactive) | 32 µM | 19.5 µM (inactive) | 31.3 µM (inactive) | 20.8 µM (inactive) | 19.1 µM (inactive) | 36.8 µM (inactive) | 31.3 µM (inactive) | 19.5 µM (inactive) | 18.7 µM (inactive) | 20.6 µM (inactive) | 38.3 µM (inactive) | > 100 µM (inactive) |  |
| Cc1ccc(-c2c(C#N)c(-c3ccc(Cl)cc3)c(C#N)c(=O)n2NS(=O)(=O)c2ccccc2)cc1 | 86.5 µM (inactive) | 86.7 µM (inactive) | 68.4 µM (inactive) | 34.4 µM (inactive) | 77.4 µM (inactive) | 37.1 µM (inactive) | 59 µM (inactive) | 51.6 µM | 23.4 µM (inactive) | 88.1 µM (inactive) | 81.7 µM (inactive) | 42.3 µM (inactive) | > 100 µM (inactive) | 55.2 µM (inactive) | 44.4 µM (inactive) | 29.9 µM (inactive) | > 100 µM (inactive) | 47.5 µM (inactive) | 74.3 µM (inactive) | 46.9 µM (inactive) |
| O=C1CCCCN1C(=O)c1ccc([N+](=O)[O-])cc1 | > 100 µM (inactive) | > 100 µM (inactive) | > 100 µM (inactive) | > 100 µM (inactive) | > 100 µM (inactive) | > 100 µM (inactive) | > 100 µM (inactive) | > 100 µM | > 100 µM (inactive) | > 100 µM (inactive) | > 100 µM (inactive) | > 100 µM (inactive) | 57.7 µM (inactive) | > 100 µM (inactive) | > 100 µM (inactive) | 44.3 µM (inactive) |  | > 100 µM (inactive) | > 100 µM (inactive) | > 100 µM (inactive) |
| c1ccc2c(c1)N=c1cc3c(cc1N2)=NC12CCCCC1CC1=C(CCCC1)N32 (configuration not stated) | 2.89 µM (inactive) | 6.52 µM (inactive) | 3.61 µM (inactive) | 2.61 µM (inactive) | 4.53 µM (inactive) | 6.76 µM (inactive) | 3.24 µM (inactive) | 5.82 µM | 6.53 µM (inactive) | 2.2 µM (inactive) | 2.37 µM (inactive) | 3.57 µM (inactive) | 2.21 µM (inactive) | 2.6 µM (inactive) | 6.17 µM (inactive) | 2.76 µM (inactive) | > 10 µM (inactive) | 2.59 µM (inactive) | 5.02 µM (inactive) | 2.81 µM (inactive) |
| Cn1cnc([N+](=O)[O-])c1Sc1nc(N)nc2c1ncn2[C@H]1C[C@H](O)[C@@H](CO)O1 | 3.86 µM (inactive) | 5.42 µM (inactive) | 4.63 µM (inactive) | 5.62 µM (inactive) | 9.18 µM (inactive) | 13.8 µM (inactive) | 2.86 µM (inactive) | 4.17 µM | 0.971 µM (active) | 2.71 µM (inactive) | 2.77 µM (inactive) | 0.434 µM (active) | 4.36 µM (inactive) | 2.43 µM (inactive) | 1.03 µM (active) | 6.84 µM (inactive) | 0.463 µM (active) | 5.68 µM (inactive) | 3.98 µM (inactive) | 3.52 µM (inactive) |
| C[C@H]1[C@H](N2CCCC2)O[Si](C(C)(C)C)(C(C)(C)C)[C@@H]1C | > 100 µM (inactive) | > 100 µM (inactive) | > 100 µM (inactive) | > 100 µM (inactive) | > 100 µM (inactive) | > 100 µM (inactive) | > 100 µM (inactive) | > 100 µM | > 100 µM (inactive) | 97.3 µM (inactive) | > 100 µM (inactive) | > 100 µM (inactive) | > 100 µM (inactive) | > 100 µM (inactive) |  | 99.5 µM (inactive) | > 100 µM (inactive) | 74.6 µM (inactive) | > 100 µM (inactive) | 46.8 µM (inactive) |
| O=C1c2cc([N+](=O)[O-])cc3cc([N+](=O)[O-])cc(c23)C(=O)N1CCCNCCNCCCN1C(=O)c2cc([N+](=O)[O-])cc3cc([N+](=O)[O-])cc(c23)C1=O | 0.0879 µM (active) | 0.769 µM (active) | 0.0294 µM (active) | 1.7 µM (inactive) | 1.05 µM (active) | 0.0655 µM (active) | 0.0102 µM (active) | 0.117 µM | 0.185 µM (active) | < 0.0167 µM (active) | 0.0582 µM (active) | 0.0142 µM (active) | 0.752 µM (active) | < 0.01 µM (active) | 0.0169 µM (active) | 0.376 µM (active) | 1.79 µM (inactive) | 0.308 µM (active) | 1.19 µM (inactive) | 0.0296 µM (active) |
| O=C(CCCc1ccccn1)c1ccccc1 | > 100 µM (inactive) | > 100 µM (inactive) | > 100 µM (inactive) | > 100 µM (inactive) | > 100 µM (inactive) | > 100 µM (inactive) | > 100 µM (inactive) | > 100 µM | > 100 µM (inactive) | > 100 µM (inactive) |  | > 100 µM (inactive) | > 100 µM (inactive) | > 100 µM (inactive) | > 100 µM (inactive) | > 100 µM (inactive) | > 100 µM (inactive) | > 100 µM (inactive) | > 100 µM (inactive) | > 100 µM (inactive) |
| C[C@@H]1OC(=O)C[C@H]2CC(=O)N(CCC3CN(C(=O)OCc4ccccc4)c4ccccc43)C[C@@H]21 (some centres not stated) | > 100 µM (inactive) | > 100 µM (inactive) | > 100 µM (inactive) | > 100 µM (inactive) | > 100 µM (inactive) | > 100 µM (inactive) | > 100 µM (inactive) | > 100 µM | > 100 µM (inactive) | > 100 µM (inactive) | > 100 µM (inactive) |  | > 100 µM (inactive) | > 100 µM (inactive) | > 100 µM (inactive) | > 100 µM (inactive) | > 100 µM (inactive) | > 100 µM (inactive) | > 100 µM (inactive) | > 100 µM (inactive) |
| Cc1ccc(-n2c(O)c(C#N)c3[nH]nc(N)c3c2=O)cc1 | > 100 µM (inactive) | > 100 µM (inactive) | > 100 µM (inactive) | > 100 µM (inactive) | > 100 µM (inactive) | > 100 µM (inactive) | > 100 µM (inactive) | > 100 µM |  | > 100 µM (inactive) | > 100 µM (inactive) | > 100 µM (inactive) | > 100 µM (inactive) | > 100 µM (inactive) | > 100 µM (inactive) | > 100 µM (inactive) | > 100 µM (inactive) | > 100 µM (inactive) | > 100 µM (inactive) |  |
| CSc1ccc(/C=C2\N=C(c3ccccc3)N(NC(=O)c3c(Cl)c(Cl)c(Cl)c(Cl)c3-c3nc4ccccc4[nH]3)C2=O)cc1 | 36 µM (inactive) | 30.8 µM (inactive) | 30.1 µM (inactive) | 25.3 µM (inactive) | 25.5 µM (inactive) | 9.59 µM (inactive) | 25.2 µM (inactive) | 15.1 µM | 4.11 µM (inactive) | 5.5 µM (inactive) | 6.84 µM (inactive) | 30.9 µM (inactive) | 6.87 µM (inactive) | 20.7 µM (inactive) | 4.43 µM (inactive) | 36.6 µM (inactive) | 5.48 µM (inactive) | 8.3 µM (inactive) |  | 28.8 µM (inactive) |
| COc1ncc(/C=C2\OC(=O)c3ccccc32)c(OC)n1 | 9.1 µM (inactive) | 12.3 µM (inactive) | 17.5 µM (inactive) | 0.402 µM (active) | 23.5 µM (inactive) | 76 µM (inactive) | > 100 µM (inactive) | 65.2 µM | 12.1 µM (inactive) | 29.2 µM (inactive) | > 100 µM (inactive) | 7.16 µM (inactive) | 50 µM (inactive) | 41 µM (inactive) | 17.9 µM (inactive) | 39 µM (inactive) |  | 6.44 µM (inactive) | 16.2 µM (inactive) | 24.4 µM (inactive) |
| O=S(=O)(c1ccccc1)C1(CCC2OCCO2)C=CC2(CC1)OCCO2 (configuration not stated) | > 100 µM (inactive) | > 100 µM (inactive) | > 100 µM (inactive) | > 100 µM (inactive) | > 100 µM (inactive) | > 100 µM (inactive) | > 100 µM (inactive) | > 100 µM | > 100 µM (inactive) | > 100 µM (inactive) |  |  | > 100 µM (inactive) | > 100 µM (inactive) | > 100 µM (inactive) | > 10 µM (inactive) | > 100 µM (inactive) | > 100 µM (inactive) | > 100 µM (inactive) | > 100 µM (inactive) |
| N=C(N)NCC1CCCCCCN1 (configuration not stated) | > 100 µM (inactive) | > 100 µM (inactive) | > 100 µM (inactive) | > 100 µM (inactive) | > 100 µM (inactive) | > 100 µM (inactive) | > 100 µM (inactive) | > 100 µM | > 100 µM (inactive) | > 100 µM (inactive) | > 100 µM (inactive) |  | > 100 µM (inactive) | > 100 µM (inactive) | > 100 µM (inactive) | > 100 µM (inactive) | > 100 µM (inactive) | > 100 µM (inactive) | > 100 µM (inactive) | > 100 µM (inactive) |
| O=c1c2cc(Br)ccc2oc2nc3n(c(=O)c12)CCCS3 | > 100 µM (inactive) | > 100 µM (inactive) | > 100 µM (inactive) | > 100 µM (inactive) | > 100 µM (inactive) | > 100 µM (inactive) | > 100 µM (inactive) | > 100 µM | > 100 µM (inactive) | > 100 µM (inactive) | > 100 µM (inactive) | > 100 µM (inactive) | > 100 µM (inactive) | > 100 µM (inactive) | > 100 µM (inactive) | > 100 µM (inactive) |  | > 100 µM (inactive) | > 100 µM (inactive) | > 100 µM (inactive) |
